Format in all cases: biochemical
The target in assay [1] is T1, Lck (Homo sapiens, UniProt P06239).
T1 construct: Kinases are expressed as either kinase domains or full length constructs; made in house
In words: Kinase inhibition assay (33P transfer), Lck. Conditions: Table 3, class symbols; read-out: Lck-1. In short, it runs like this: (§1)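 Activity was read as 33P incorporation, counted by liquid scintillation after a 0.5% phosphoric acid wash, into poly(Glu,Tyr) 4:1 or poly(Arg,Ser) 3:1 substrates coated on plates. Enzymes were tagged (GST or polyHis) kinase domains or full-length proteins from bacterial or insect-cell expression, sometimes with regulatory polypeptides.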

Assay [2] has as its target T2, Zap-70 (Homo sapiens, UniProt P43403).
T2 construct: Kinases are expressed as either kinase domains or full length constructs; made in house
T2 sequence (P43403 1-619): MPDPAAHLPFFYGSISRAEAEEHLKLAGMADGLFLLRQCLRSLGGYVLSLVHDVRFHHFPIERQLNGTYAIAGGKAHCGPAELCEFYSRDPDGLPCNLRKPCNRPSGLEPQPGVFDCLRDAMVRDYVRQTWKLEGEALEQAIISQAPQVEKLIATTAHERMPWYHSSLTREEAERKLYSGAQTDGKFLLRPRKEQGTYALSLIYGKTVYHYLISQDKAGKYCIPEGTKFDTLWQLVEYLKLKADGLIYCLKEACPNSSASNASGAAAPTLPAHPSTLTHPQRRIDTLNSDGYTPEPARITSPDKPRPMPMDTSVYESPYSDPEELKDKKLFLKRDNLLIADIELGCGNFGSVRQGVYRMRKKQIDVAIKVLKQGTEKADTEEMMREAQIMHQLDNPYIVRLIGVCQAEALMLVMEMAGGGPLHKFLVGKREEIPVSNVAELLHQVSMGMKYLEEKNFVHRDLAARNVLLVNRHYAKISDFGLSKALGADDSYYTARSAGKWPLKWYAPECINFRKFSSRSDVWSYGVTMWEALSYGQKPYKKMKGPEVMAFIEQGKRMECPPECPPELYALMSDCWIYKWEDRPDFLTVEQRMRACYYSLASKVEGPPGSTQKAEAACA
In words: Kinase inhibition assay (33P transfer), Zap-70. Conditions: Table 3, class symbols; read-out: Zap-1. In short, it runs like this:
as §1

The target of assay [3] is T3, Itk (Homo sapiens, UniProt Q08881).
T3 construct: Kinases are expressed as either kinase domains or full length constructs; made in house
T3 sequence (Q08881 1-620): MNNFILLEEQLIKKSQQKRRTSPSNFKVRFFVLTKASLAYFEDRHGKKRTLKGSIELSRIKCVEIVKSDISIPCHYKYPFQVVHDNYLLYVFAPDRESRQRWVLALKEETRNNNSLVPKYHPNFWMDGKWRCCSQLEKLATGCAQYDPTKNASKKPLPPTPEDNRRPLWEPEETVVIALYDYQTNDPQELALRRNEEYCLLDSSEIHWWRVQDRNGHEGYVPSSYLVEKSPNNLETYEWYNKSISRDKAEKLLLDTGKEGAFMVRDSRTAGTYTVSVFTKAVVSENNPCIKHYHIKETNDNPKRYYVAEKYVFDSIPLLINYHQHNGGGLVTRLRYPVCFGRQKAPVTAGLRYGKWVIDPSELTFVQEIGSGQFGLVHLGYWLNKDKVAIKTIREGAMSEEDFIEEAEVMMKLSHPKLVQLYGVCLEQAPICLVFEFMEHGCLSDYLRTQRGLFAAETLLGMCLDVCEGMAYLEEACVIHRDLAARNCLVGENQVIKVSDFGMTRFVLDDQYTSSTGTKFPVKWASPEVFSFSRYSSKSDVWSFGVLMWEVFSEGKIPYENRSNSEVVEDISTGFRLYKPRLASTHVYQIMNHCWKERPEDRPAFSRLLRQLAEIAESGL
Description: Kinase inhibition assay (33P transfer), Itk. The note with it: Table 3, class symbols; read-out: Itk-1. In short, it runs like this: (§2)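 IC50: inhibitor concentration lowering 33P incorporation into immobilised substrate by 50%. Label transferred from ATP to poly(Glu,Tyr) 4:1 or poly(Arg,Ser) 3:1 is measured after a 0.5% phosphoric acid wash by liquid scintillation.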

Assay [4] addresses T4, EGFR (Homo sapiens, UniProt P00533).
T4 construct: Kinases are expressed as either kinase domains or full length constructs; made in house
In words: Kinase inhibition assay (33P transfer), EGFR. The note with it: Table 2, class symbols A-E; read-out: EGFR-1. Put shortly:
as §2

Assay [5] addresses T5, ErbB2 (Homo sapiens, UniProt P04626).
T5 construct: Kinases are expressed as either kinase domains or full length constructs; made in house
In words: Kinase inhibition assay (33P transfer), ErbB2. Conditions: read-out: ErbB2-2. Put shortly: as §2

The target of assay [6] is T6, Kdr (Homo sapiens, UniProt P35968).
T6 construct: Kinases are expressed as either kinase domains or full length constructs; made in house
T6 sequence (P35968 20-1356, species assumed): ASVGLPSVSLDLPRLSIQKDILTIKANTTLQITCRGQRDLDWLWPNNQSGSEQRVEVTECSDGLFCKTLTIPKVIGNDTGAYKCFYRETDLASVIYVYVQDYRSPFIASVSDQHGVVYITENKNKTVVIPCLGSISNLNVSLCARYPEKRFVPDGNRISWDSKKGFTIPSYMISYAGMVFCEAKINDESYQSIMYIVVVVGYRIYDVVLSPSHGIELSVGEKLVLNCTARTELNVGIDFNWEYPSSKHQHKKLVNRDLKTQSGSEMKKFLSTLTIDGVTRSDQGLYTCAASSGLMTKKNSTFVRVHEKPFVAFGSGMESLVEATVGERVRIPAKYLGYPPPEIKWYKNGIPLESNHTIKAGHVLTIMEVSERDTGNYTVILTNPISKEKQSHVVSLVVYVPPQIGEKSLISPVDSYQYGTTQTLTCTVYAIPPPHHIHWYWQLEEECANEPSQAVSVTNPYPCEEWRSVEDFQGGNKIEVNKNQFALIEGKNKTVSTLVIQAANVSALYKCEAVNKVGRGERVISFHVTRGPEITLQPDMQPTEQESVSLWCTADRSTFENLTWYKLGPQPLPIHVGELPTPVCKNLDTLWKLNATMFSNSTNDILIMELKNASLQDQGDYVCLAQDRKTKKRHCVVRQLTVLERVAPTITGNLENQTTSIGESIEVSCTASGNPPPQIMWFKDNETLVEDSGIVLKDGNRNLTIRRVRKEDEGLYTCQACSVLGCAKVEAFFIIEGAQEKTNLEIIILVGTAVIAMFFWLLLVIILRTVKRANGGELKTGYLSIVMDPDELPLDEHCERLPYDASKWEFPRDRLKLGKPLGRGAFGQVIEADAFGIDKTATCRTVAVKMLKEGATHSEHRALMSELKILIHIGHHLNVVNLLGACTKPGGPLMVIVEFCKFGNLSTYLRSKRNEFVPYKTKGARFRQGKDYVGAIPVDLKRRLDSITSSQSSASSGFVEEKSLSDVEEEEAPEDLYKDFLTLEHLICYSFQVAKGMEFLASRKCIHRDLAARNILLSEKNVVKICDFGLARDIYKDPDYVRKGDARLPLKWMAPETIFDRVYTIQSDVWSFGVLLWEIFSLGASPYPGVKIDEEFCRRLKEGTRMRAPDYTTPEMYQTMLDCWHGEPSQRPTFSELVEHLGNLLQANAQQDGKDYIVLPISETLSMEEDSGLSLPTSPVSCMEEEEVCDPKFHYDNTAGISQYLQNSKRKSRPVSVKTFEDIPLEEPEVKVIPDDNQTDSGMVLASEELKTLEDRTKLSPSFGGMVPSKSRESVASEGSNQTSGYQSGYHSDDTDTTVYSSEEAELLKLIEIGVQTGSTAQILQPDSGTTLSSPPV
In words: Kinase inhibition assay (33P transfer), Kdr. The note with it: Table 3, class symbols; read-out: KDR-1. In short, it runs like this: as §1

The target in assay [7] is T7, c-Met (Homo sapiens, UniProt P08581).
T7 construct: Kinases are expressed as either kinase domains or full length constructs; made in house
T7 sequence (P08581 25-1390): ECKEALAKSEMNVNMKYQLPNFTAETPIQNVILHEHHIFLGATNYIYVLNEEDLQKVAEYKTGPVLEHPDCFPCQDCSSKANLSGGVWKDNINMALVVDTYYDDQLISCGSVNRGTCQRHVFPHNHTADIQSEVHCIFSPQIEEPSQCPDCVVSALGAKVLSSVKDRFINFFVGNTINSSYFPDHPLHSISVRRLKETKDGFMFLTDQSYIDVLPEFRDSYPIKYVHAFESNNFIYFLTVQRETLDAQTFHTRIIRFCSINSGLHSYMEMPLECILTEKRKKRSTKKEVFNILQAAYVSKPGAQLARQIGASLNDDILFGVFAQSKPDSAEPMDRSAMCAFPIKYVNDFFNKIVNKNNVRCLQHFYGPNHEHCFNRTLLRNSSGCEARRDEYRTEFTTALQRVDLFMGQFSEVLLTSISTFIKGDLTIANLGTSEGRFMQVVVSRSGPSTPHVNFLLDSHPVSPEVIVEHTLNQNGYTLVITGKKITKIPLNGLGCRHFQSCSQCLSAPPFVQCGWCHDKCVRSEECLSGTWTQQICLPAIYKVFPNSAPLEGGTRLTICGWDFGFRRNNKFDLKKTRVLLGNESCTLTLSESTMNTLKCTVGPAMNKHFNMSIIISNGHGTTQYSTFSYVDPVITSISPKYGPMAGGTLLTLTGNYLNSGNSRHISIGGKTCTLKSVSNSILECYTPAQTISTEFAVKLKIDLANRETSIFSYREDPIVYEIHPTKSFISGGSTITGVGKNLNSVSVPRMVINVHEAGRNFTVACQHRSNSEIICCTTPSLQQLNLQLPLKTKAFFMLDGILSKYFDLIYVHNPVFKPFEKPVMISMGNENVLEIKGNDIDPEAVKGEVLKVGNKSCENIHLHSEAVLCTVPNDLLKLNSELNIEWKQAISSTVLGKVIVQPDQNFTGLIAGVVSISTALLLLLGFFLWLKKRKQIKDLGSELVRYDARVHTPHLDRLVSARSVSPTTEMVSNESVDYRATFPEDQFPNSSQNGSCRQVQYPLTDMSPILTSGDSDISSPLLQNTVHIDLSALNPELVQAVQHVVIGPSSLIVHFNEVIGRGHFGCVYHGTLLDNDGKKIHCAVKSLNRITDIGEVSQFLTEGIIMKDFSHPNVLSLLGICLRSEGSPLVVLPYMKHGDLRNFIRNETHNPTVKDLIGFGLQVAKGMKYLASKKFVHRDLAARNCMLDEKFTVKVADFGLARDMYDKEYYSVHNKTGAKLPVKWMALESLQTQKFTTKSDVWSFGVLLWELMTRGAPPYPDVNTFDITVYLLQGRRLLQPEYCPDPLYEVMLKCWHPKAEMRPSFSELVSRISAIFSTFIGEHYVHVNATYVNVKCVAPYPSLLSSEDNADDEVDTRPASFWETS
Description: Kinase inhibition assay (33P transfer), c-Met. The note with it: Table 2, class symbols A-E; read-out: Met-1. In short, it runs like this: as §2

Assay [8] has as its target T8, AKT (Homo sapiens, UniProt Q9Y243).
T8 construct: Kinases are expressed as either kinase domains or full length constructs; made in house
Description: Kinase inhibition assay (33P transfer), AKT. Conditions: Table 2, class symbols A-E; read-out: AKT3-1. Put shortly:
as §1

For assay [9], the target named is T9, IGFR-1 (Homo sapiens, UniProt P08069).
T9 construct: Kinases are expressed as either kinase domains or full length constructs; made in house
T9 sequence (P08069 31-1367): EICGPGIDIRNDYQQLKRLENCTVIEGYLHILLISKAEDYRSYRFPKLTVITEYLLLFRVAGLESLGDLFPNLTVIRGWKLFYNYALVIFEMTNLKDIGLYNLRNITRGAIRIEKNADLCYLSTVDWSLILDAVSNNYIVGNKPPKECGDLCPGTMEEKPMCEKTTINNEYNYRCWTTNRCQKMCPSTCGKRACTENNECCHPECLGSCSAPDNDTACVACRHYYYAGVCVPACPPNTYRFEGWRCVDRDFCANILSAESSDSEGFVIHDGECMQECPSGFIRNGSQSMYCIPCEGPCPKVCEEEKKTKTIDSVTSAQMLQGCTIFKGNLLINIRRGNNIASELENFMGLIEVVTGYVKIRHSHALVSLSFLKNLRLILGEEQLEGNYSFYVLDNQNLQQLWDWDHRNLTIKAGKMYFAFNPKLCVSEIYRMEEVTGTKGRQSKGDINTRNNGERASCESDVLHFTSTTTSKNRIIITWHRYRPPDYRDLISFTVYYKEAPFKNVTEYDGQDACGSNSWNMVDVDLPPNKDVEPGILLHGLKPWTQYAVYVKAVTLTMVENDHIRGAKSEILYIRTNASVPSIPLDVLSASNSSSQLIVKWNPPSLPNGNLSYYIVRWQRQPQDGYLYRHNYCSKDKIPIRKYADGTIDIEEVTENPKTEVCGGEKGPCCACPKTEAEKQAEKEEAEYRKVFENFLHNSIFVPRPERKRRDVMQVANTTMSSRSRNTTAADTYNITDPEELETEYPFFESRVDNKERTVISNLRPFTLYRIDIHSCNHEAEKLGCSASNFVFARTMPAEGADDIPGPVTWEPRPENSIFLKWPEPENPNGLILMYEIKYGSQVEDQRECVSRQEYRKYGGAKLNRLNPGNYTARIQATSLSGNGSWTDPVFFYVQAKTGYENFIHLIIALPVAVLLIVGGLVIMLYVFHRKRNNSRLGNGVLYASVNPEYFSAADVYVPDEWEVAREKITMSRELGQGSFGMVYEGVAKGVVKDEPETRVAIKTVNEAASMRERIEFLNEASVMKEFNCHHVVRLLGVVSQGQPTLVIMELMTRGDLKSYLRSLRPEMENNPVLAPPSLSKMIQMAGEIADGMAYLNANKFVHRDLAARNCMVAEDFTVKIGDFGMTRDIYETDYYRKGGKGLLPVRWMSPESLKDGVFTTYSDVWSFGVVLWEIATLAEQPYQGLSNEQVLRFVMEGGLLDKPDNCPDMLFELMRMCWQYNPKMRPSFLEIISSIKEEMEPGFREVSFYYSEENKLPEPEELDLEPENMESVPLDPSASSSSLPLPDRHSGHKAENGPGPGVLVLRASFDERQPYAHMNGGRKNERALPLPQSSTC
Description: Kinase inhibition assay (33P transfer), IGFR-1. The note with it: Table 2, class symbols A-E.

Assay [10] has as its target T10, PDGFRB (Homo sapiens, UniProt P09619).
T10 construct: Kinases are expressed as either kinase domains or full length constructs; made in house
In words: Kinase inhibition assay (33P transfer), PDGFRB. Conditions: read-out: PDGFRB-1.

The structures appear in SMILES notation. pIC50: −log10 of the molar value.

T10 sequence (P09619 33-1106, species assumed): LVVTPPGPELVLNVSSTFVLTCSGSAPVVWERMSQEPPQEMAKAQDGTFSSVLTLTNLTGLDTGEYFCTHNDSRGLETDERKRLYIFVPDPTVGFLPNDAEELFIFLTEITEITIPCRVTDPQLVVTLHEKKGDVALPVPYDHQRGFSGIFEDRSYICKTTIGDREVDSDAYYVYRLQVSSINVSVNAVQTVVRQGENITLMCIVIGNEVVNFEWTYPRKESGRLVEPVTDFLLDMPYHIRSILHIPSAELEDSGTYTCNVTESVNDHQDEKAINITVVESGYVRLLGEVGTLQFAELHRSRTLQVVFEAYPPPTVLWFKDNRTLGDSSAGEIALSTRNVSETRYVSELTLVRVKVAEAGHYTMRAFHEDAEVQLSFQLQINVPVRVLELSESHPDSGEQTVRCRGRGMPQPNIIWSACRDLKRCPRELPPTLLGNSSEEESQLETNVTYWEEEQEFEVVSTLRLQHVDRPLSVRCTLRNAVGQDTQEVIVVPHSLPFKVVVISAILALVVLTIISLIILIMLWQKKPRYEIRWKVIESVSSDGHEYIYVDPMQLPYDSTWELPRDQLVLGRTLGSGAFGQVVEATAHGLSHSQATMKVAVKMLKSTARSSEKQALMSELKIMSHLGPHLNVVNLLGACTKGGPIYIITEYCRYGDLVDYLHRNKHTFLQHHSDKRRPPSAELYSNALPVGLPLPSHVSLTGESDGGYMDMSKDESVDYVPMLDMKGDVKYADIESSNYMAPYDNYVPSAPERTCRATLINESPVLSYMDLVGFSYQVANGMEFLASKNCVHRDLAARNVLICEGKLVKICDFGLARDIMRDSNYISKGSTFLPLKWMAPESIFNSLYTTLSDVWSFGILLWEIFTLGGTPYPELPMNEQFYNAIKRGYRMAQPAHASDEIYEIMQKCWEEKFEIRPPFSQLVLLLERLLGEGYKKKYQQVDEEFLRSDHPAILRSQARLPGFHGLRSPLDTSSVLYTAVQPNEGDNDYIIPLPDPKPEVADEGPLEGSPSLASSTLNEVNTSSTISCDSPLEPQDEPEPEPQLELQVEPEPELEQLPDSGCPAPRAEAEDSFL

`COc1cc(C)c(Nc2ncnc(Nc3cc(-c4ccc(C)cc4)n[nH]3)n2)cc1OC` [Compound 1127]: the pIC50 in assay [1], in assay [2], in assay [3], in assay [4], in assay [5] and in [6] was < 4.97 each time. In addition, the pIC50 in [7] was > 6.02; in assay [8], < 4.97; in assay [9], > 6.02; in assay [10], < 4.97.

In the case of `Cc1ccc(Cl)cc1Nc1ncnc(Nc2cc(Cl)ccc2C)n1` [Compound 638], the pIC50 is < 4.90 in [1]; < 4.90 in [2]; < 4.90 in assay [3]; > 5.95 in [4]; 4.90 to 5.01 in assay [5]; 4.90 to 5.01 in [6]. Moreover, the pIC50 in assay [7] was < 4.90; in [8], < 4.90; in assay [9] it was 4.90 to 5.01; in assay [10], 5.18 to 5.95.

`COc1cc(Nc2ncnc(-c3cccnc3Nc3cccc(C(F)(F)F)c3)n2)cc(OC)c1OC` [Compound 836]: the pIC50 in assay [1], in assay [2], in [3], in assay [4], in assay [5] and in assay [6] was < 5.04 in each case. Also, the pIC50 in [7], in assay [8], in [9] and in assay [10] was < 5.04 throughout.

As to `Nc1nc2ccccc2n1-c1ncnc(Nc2cccc(Cn3ccnn3)c2)n1` [Compound 960], the pIC50 in [1] is 5.20 to 5.98; in assay [2], < 4.93; in assay [3] it was 5.20 to 5.98; in [4], 5.04 to 5.20; in assay [5], 5.04 to 5.20; in assay [6], > 5.98. Also, the pIC50 in assay [7] is 4.93 to 5.04; in [8], < 4.93; in assay [9], > 5.98; in assay [10] it was 4.93 to 5.04.

On to `Fc1ccc(CNc2ncccc2-c2ncnc(Nc3cccc(Cn4ccnc4)c3)n2)cc1` [Compound 1109], for which the pIC50 is 5.28 to 6.05 in assay [1]; 5.11 to 5.28 in assay [2]; > 6.05 in assay [3]; 5.28 to 6.05 in [4]; 5.28 to 6.05 in assay [5]; > 6.05 in assay [6]. In addition, the pIC50 is 5.11 to 5.28 in [7], < 5.00 in [8], 5.28 to 6.05 in assay [9] and > 6.05 in assay [10].

Consider `c1ccc(-c2cc(Nc3ncnc(Nc4ccc5[nH]ncc5c4)n3)[nH]n2)cc1` [Compound 1013], for which the pIC50 is 5.19 to 5.97 in assay [1]; 5.02 to 5.19 in assay [2]; 5.19 to 5.97 in assay [3]; 5.19 to 5.97 in assay [4]; 5.19 to 5.97 in [5]; > 5.97 in assay [6]. Moreover, the pIC50 in assay [7] was 5.19 to 5.97; in [8], 5.19 to 5.97; in [9], > 5.97; in assay [10] it was > 5.97.

As to `c1ccc(Nc2ncccc2-c2ncnc(Nc3cccc(Cn4ccnn4)c3)n2)cc1` [Compound 1095], the pIC50 in assay [1] is < 4.97; in assay [2], < 4.97; in [3], < 4.97; in [4], < 4.97; in assay [5], < 4.97; in assay [6], > 6.02. For the same compound, the pIC50 is < 4.97 in assay [7], < 4.97 in assay [8], < 4.97 in assay [9] and > 6.02 in assay [10].

Take `COC(=O)c1ccc(-c2cc(Nc3ncnc(Nc4cccc5ncccc45)n3)[nH]n2)cc1` [Compound 878]: the pIC50 in [1] was < 4.99; in assay [2], < 4.99; in assay [3] it was 4.99 to 5.10; in assay [4], < 4.99; in assay [5] it was < 4.99; in assay [6] it was < 4.99. For the same compound, the pIC50 in assay [7] was 4.99 to 5.10; in [8], < 4.99; in assay [9] it was 5.10 to 5.26; in assay [10], 5.26 to 6.04.

(Values after US7074789B2, “Kinase inhibitors” (Amgen Inc., priority 1999, dated 2006).)
